Laboratory results taken from PubChem BioAssay (NCI).
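Step 1: Grow cells in 96-well plates. Step 2: Expose to compound for 48 hours at 5 concentrations. Step 3: Interpolate endpoints linearly; if unreached, use highest concentration. GI50 marks 50% less growth. TGI: concentration producing complete growth inhibition.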

Tests used:
Assay in all cases: NCI tumour cell line growth inhibition, 48 h
[1] = system: BT-549 breast
[2] = system: HOP-62 NSCLC
[3] = system: U251 CNS
[4] = system: SF-539 CNS
[5] = system: NCI/ADR-RES ovarian
[6] = system: HCT-15 colon
[7] = system: CAKI-1 renal
[8] = system: A498 renal
[9] = system: IGROV1 ovarian
[10] = system: HT29 colon
[11] = system: M14 melanoma
[12] = system: HCT-116 colon
[13] = system: SNB-75 CNS
[14] = system: OVCAR-4 ovarian
[15] = system: MOLT-4 leukemia
[16] = system: NCI-H23 lung
[17] = system: DU-145 prostate
[18] = system: SF-295 CNS
[19] = system: OVCAR-8 ovarian
[20] = system: COLO 205 colon
[21] = system: MCF7 breast
[22] = system: UO-31 renal
[23] = system: MALME-3M melanoma
[24] = system: TK-10 renal
[25] = system: ACHN renal
[26] = system: K-562 leukemia
[27] = system: HOP-92 NSCLC
[28] = system: HS 578T breast
[29] = system: SNB-19 CNS
[30] = system: A549 NSCLC
[31] = system: SK-OV-3 ovarian
[32] = system: OVCAR-5 ovarian
[33] = system: SK-MEL-28 melanoma
[34] = system: T-47D breast
[35] = system: MDA-MB-435
[36] = system: UACC-257 melanoma
[37] = system: SW-620 colon
[38] = system: NCI-H460 lung
[39] = system: 786-0 renal
[40] = system: HCC-2998 colon
[41] = system: OVCAR-3 ovarian
[42] = system: PC-3 prostate
[43] = system: SK-MEL-2 melanoma
[44] = system: NCI-H522 lung
[45] = system: HL-60(TB) leukemia
[46] = system: UACC-62 melanoma
[47] = system: SK-MEL-5 melanoma
[48] = system: NCI-H226 lung
[49] = system: SN12C renal
[50] = system: RPMI-8226 leukemia
[51] = system: CCRF-CEM leukemia
[52] = system: RXF 393 renal
[53] = system: SR leukemia
[54] = system: KM12 colon
[55] = system: EKVX NSCLC
[56] = system: MDA-MB-231 breast
[57] = system: SF-268 CNS

Compound `Cn1ccnc1C(=O)/C=C/c1ccc(NC(=O)Nc2ccccc2)cc1` has a GI50 [1] of 13.6 µM, a TGI [1] of 29.9 µM and a GI50 [2] of 24.1 µM. It also gave a TGI [2] of 69.2 µM, a GI50 [3] of 13.6 µM and a TGI [3] of 29.6 µM. The GI50 [4] was 13.9 µM, the TGI [4] was 28.5 µM and the GI50 [5] was 29 µM. For the same compound, the TGI [5] was greater than 100 µM, the GI50 [6] was 7.16 µM and the TGI [6] was 27.2 µM. It also gave a GI50 [7] of 20.8 µM, a TGI [7] of 99.3 µM and a GI50 [8] of 21.3 µM. It also gave a TGI [8] of 65.6 µM, a GI50 [9] of 19.1 µM and a TGI [9] of 64.1 µM. The GI50 [10] was 15.9 µM, the TGI [10] was 31 µM and the GI50 [11] was 20.8 µM. The TGI [11] was 58.5 µM, the GI50 [12] was 13.3 µM and the TGI [12] was 26.6 µM. It also gave a GI50 [13] of 12.9 µM, a TGI [13] of 26 µM and a GI50 [14] of 20.2 µM. It also gave a TGI [14] greater than 100 µM, a GI50 [15] of 16.5 µM and a TGI [15] of 85.1 µM. The GI50 [16] was 16.1 µM, the TGI [16] was 37.3 µM and the GI50 [17] was 12.5 µM. For the same compound, the TGI [17] was 32.5 µM, the GI50 [18] was 14.8 µM and the TGI [18] was 46.4 µM. For the same compound, the GI50 [19] was 25 µM, the TGI [19] was greater than 100 µM and the GI50 [20] was 16.9 µM. The TGI [20] was 31.6 µM, the GI50 [21] was 15.6 µM and the TGI [21] was 86.3 µM. It also gave a GI50 [22] of 14.3 µM, a TGI [22] of 29.4 µM and a GI50 [23] of 18.3 µM. The TGI [23] was 50.7 µM, the GI50 [24] was 29.8 µM and the TGI [24] was greater than 100 µM. It also gave a GI50 [25] of 23.1 µM, a TGI [25] of 72 µM and a GI50 [26] of 8.29 µM. The TGI [26] was greater than 100 µM, the GI50 [27] was 20.6 µM and the TGI [27] was 69.1 µM. It also gave a GI50 [28] of 33.7 µM, a TGI [28] greater than 100 µM and a GI50 [29] of 16.7 µM. The TGI [29] was 42.8 µM, the GI50 [30] was 21.8 µM and the TGI [30] was greater than 100 µM. For the same compound, the GI50 [31] was 32.5 µM, the TGI [31] was greater than 100 µM and the GI50 [32] was 19.9 µM. For the same compound, the TGI [32] was 55.1 µM, the GI50 [33] was 16.2 µM and the TGI [33] was 32.8 µM. For the same compound, the GI50 [34] was 23.4 µM, the TGI [34] was greater than 100 µM and the GI50 [35] was 21.6 µM. For the same compound, the TGI [35] was 58.3 µM, the GI50 [36] was 16.1 µM and the TGI [36] was 38.8 µM. For the same compound, the GI50 [37] was 18.7 µM, the TGI [37] was 54.3 µM and the GI50 [38] was 17.2 µM. The TGI [38] was 47.8 µM, the GI50 [39] was 19.1 µM and the TGI [39] was 47.3 µM. The GI50 [40] was 14.7 µM, the TGI [40] was 28.6 µM and the GI50 [41] was 29 µM. For the same compound, the TGI [41] was greater than 100 µM, the GI50 [42] was 18.4 µM and the TGI [42] was 49.5 µM. It also gave a GI50 [43] of 16.8 µM, a TGI [43] of 36 µM and a GI50 [44] of 13 µM. It also gave a TGI [44] of 27.3 µM, a GI50 [45] of 15.6 µM and a TGI [45] of 69.1 µM. The GI50 [46] was 15.3 µM, the TGI [46] was 30.8 µM and the GI50 [47] was 15.7 µM. For the same compound, the TGI [47] was 29.4 µM, the GI50 [48] was 22.9 µM and the TGI [48] was greater than 100 µM. The GI50 [49] was 14.9 µM, the TGI [49] was 40.4 µM and the GI50 [50] was 16 µM. For the same compound, the TGI [50] was 54.8 µM, the GI50 [51] was 21.5 µM and the TGI [51] was greater than 100 µM. It also gave a GI50 [52] of 12.7 µM, a TGI [52] of 27 µM and a GI50 [53] of 4.9 µM. For the same compound, the TGI [53] was 75.3 µM, the GI50 [54] was 18.1 µM and the TGI [54] was 41.8 µM. It also gave a GI50 [55] of 22.6 µM, a TGI [55] of 63.4 µM and a GI50 [56] of 16.9 µM. It also gave a TGI [56] of 34 µM, a GI50 [57] of 28.7 µM and a TGI [57] greater than 100 µM.
